Reference: ChEMBL document CHEMBL1131481, “Novel 3-aralkyl-7-(amino-substituted)-1,2,3-triazolo[4,5-d]pyrimidines with high affinity toward A1 adenosine receptors” (J Med Chem, 1998)

Biological target: T1, Adenosine receptor A1 (Bos taurus, UniProt P28190)
T1 sequence (P28190 whole entry): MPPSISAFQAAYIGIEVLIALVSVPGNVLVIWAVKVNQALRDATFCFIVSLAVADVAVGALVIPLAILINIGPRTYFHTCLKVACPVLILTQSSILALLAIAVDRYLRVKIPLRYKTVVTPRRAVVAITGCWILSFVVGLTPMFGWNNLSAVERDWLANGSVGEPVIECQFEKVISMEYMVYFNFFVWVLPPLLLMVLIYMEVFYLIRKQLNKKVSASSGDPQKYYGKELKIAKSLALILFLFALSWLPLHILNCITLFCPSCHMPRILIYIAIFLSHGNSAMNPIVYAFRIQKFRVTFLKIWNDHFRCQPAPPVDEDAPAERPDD
Assay: Compound was tested for binding affinity at Adenosine A1 receptor in bovine brain cortical membranes using [3H](R)-(-)-N6-(2-phenylisopropyl)adenosine (R-PIA) as radioligand
Type: cell membranes

Question: For `O=[N+]([O-])c1ccc(CNc2ncnc3c2nnn3Cc2ccccc2)cc1`, which Ki is on record?
Answer: Its Ki is greater than 10000 nM.

Question: With `Clc1ccccc1Cn1nnc2c(NC3CCCCC3)ncnc21` as the compound, how does the Ki read?
Answer: Its Ki is 43 nM.

Question: Which Ki does the source give for `O=[N+]([O-])c1ccc(CCNc2ncnc3c2nnn3Cc2ccccc2)cc1` here?
Answer: Its Ki is greater than 10000 nM.

Question: `Cc1ccc(Nc2ncnc3c2nnn3Cc2ccccc2Cl)cc1` was tested. Which Ki did it give?
Answer: The Ki was 119 nM.

Question: `CC(Nc1ncnc2c1nnn2Cc1ccccc1Cl)c1ccccc1` (centres undefined) was tested. Which Ki did it give?
Answer: Its Ki is 468 nM.

Question: How did the Ki turn out when `c1ccc(CCn2nnc3c(NC4CCCCC4)ncnc32)cc1` was run?
Answer: Its Ki is 216 nM.

Question: How did the Ki turn out when `Clc1cccc(Nc2ncnc3c2nnn3CCc2ccccc2)c1` was run?
Answer: The Ki was 3320 nM.

Question: `Cc1cccc(Nc2ncnc3c2nnn3Cc2ccccc2)c1` was tested. Which Ki did it give?
Answer: Its Ki is 1100 nM.

Question: Which Ki does the source give for `Clc1ccccc1Cn1nnc2c(NC3CCCC3)ncnc21` here?
Answer: The Ki was 21 nM.

Question: `O=[N+]([O-])c1cccc(Nc2ncnc3c2nnn3CCc2ccccc2)c1` was tested. Which Ki did it give?
Answer: The Ki was 2250 nM.

Question: `O=[N+]([O-])c1ccc(CNc2ncnc3c2nnn3Cc2ccccc2Cl)cc1` was tested. Which Ki did it give?
Answer: The Ki was greater than 10000 nM.

Question: How did the Ki turn out when `O=[N+]([O-])c1cccc(Nc2ncnc3c2nnn3Cc2ccccc2)c1` was run?
Answer: Its Ki is 443 nM.

Question: `CC(Nc1ncnc2c1nnn2CCc1ccccc1)c1ccccc1` (centres undefined) was tested. Which Ki did it give?
Answer: The Ki was 2200 nM.

Question: For `Clc1ccccc1Cn1nnc2c(NCC3CCCCC3)ncnc21`, which Ki is on record?
Answer: Its Ki is 4260 nM.

Question: `C[C@H](Cc1ccccc1)Nc1ncnc2c1nnn2Cc1ccccc1Cl` was tested. Which Ki did it give?
Answer: The Ki was 39 nM.

Question: With `Cc1ccc(Nc2ncnc3c2nnn3CCc2ccccc2)cc1` as the compound, how does the Ki read?
Answer: The Ki was 1670 nM.

Question: How did the Ki turn out when `c1ccc(Cn2nnc3c(NCC4CCCCC4)ncnc32)cc1` was run?
Answer: Its Ki is 2790 nM.

Question: For `CC(Cc1ccccc1)Nc1ncnc2c1nnn2Cc1ccccc1` (centres undefined), which Ki is on record?
Answer: Its Ki is 575 nM.

Question: How did the Ki turn out when `c1ccc(Cn2nnc3c(NC4CCCC4)ncnc32)cc1` was run?
Answer: The Ki was 127 nM.

Question: `Clc1cccc(Nc2ncnc3c2nnn3Cc2ccccc2Cl)c1` was tested. Which Ki did it give?
Answer: The Ki was 1830 nM.

Question: `O=[N+]([O-])c1ccc(CNc2ncnc3c2nnn3CCc2ccccc2)cc1` was tested. Which Ki did it give?
Answer: The Ki was 245 nM.

Question: With `Nc1ccc(CNc2ncnc3c2nnn3Cc2ccccc2)cc1` as the compound, how does the Ki read?
Answer: Its Ki is 9500 nM.

Question: How did the Ki turn out when `Cc1ccc(Nc2ncnc3c2nnn3Cc2ccccc2)cc1` was run?
Answer: The Ki was 502 nM.

Question: With `Cc1cccc(Nc2ncnc3c2nnn3Cc2ccccc2Cl)c1` as the compound, how does the Ki read?
Answer: Its Ki is 5880 nM.

Question: `CC1CCCC(Nc2ncnc3c2nnn3Cc2ccccc2Cl)C1` (centres undefined) was tested. Which Ki did it give?
Answer: The Ki was 102 nM.

Question: How did the Ki turn out when `Clc1ccccc1Cn1nnc2c(NNc3ccccc3)ncnc21` was run?
Answer: Its Ki is greater than 10000 nM.

Question: `O=[N+]([O-])c1cccc(Nc2ncnc3c2nnn3Cc2ccccc2Cl)c1` was tested. Which Ki did it give?
Answer: Its Ki is 3300 nM.

Question: For `Nc1ccc(CCNc2ncnc3c2nnn3Cc2ccccc2)cc1`, which Ki is on record?
Answer: Its Ki is 1540 nM.

Question: Which Ki does the source give for `O=[N+]([O-])c1ccc(CCNc2ncnc3c2nnn3Cc2ccccc2Cl)cc1` here?
Answer: The Ki was greater than 10000 nM.

Question: `CC(Cc1ccccc1)Nc1ncnc2c1nnn2Cc1ccccc1Cl` (centres undefined) was tested. Which Ki did it give?
Answer: The Ki was 73 nM.

Question: `Cc1cccc(Nc2ncnc3c2nnn3CCc2ccccc2)c1` was tested. Which Ki did it give?
Answer: The Ki was 4380 nM.

Question: `Clc1cccc(Nc2ncnc3c2nnn3Cc2ccccc2)c1` was tested. Which Ki did it give?
Answer: Its Ki is 463 nM.

Question: `CC1CCCC(Nc2ncnc3c2nnn3Cc2ccccc2)C1` (centres undefined) was tested. Which Ki did it give?
Answer: The Ki was 770 nM.

Question: `Nc1ccc(CNc2ncnc3c2nnn3Cc2ccccc2Cl)cc1` was tested. Which Ki did it give?
Answer: Its Ki is greater than 10000 nM.

Question: With `C[C@H](Cc1ccccc1)Nc1ncnc2c1nnn2Cc1ccccc1` as the compound, how does the Ki read?
Answer: Its Ki is 274 nM.

Question: How did the Ki turn out when `c1ccc(Cn2nnc3c(NC4CCCCC4)ncnc32)cc1` was run?
Answer: The Ki was 121 nM.

Question: How did the Ki turn out when `CC(Cc1ccccc1)Nc1ncnc2c1nnn2CCc1ccccc1` (centres undefined) was run?
Answer: The Ki was 2490 nM.

Question: How did the Ki turn out when `CC(Nc1ncnc2c1nnn2Cc1ccccc1)c1ccccc1` (centres undefined) was run?
Answer: The Ki was 438 nM.

Question: How did the Ki turn out when `c1ccc(CCn2nnc3c(NC4CCCC4)ncnc32)cc1` was run?
Answer: Its Ki is 176 nM.
